Values joined by “and” are separate entries in the source; they are usually repeats but may differ in a detail not shown here. Equal entries are not always repeated. Where two headings read alike, the source gives them in different places.
Legend:
AMPK in U2OS cells = experiment: AMPK activity in anti-α1/-α2 immunoprecipitates from treated U2OS cells; format: cell-based, human
Excerpt: (§1) T-Rex U2OS cells carrying a Flp Recombinase Target (FRT) site were generated as described previously and grown in Dulbecco’s Modified Eagle’s Medium (DMEM) supplemented with 10% (v/v) FBS and 1% (v/v) penicillin/streptomycin.
(§2) Cells were lysed rapidly in situ on culture plates using ice-cold lysis medium containing phosphatase inhibitors, as described previously.
(§3) AMPK assays measured the transfer of radioactivity from labelled ATP to a peptide substrate, which was separated from unreacted ATP by binding to P81 paper. This assay was described previously, except that we used [γ-^33P]ATP rather than [γ-^32P]ATP. The peptide substrate was the AMARA peptide in all experiments other than one, which analyzed allosteric activation by AMP (Figure 2A), when, for technical reasons, the SAMS peptide was used instead. With purified preparations of AMPK, it was assayed in solution, but for assays in cell lysates (Figure 3D and Figure 4D), it was first immunoprecipitated using a mixture of anti-α1 and -α2 antibodies and assayed in resuspended immunoprecipitates. After the initial immunoprecipitation of lysate containing 80 µg of protein, the pellets were washed twice with 1 mL of high salt IP buffer (50 mM Tris-HCL, pH 7.4 at 4 °C, 1 M NaCl, 1 mM EDTA, 1 mM EGTA, 50 mM NaF, 5 mM Na pyrophosphate, 1 mM dithiothreitol, 0.1% (v/v) Triton X-100) and twice with 1 mL of low salt IP buffer (as above but only 150 mM NaCl), followed by a final wash in 1 mL of assay buffer (50 mM Na Hepes, pH7.4, 150 mM NaCl, 1 mM dithiothreitol, 0.02% (v/v) Brij-35). After each wash, the pellet was recovered via centrifugation (16,000× g, 3 min) and then resuspended. The final resuspended pellets from each biological replicate were divided into two aliquots (40 µg lysate protein) to provide technical replicates and assayed as above.

PPM1A = system: T1, PPM1A; experiment: PPM1A activity using p-nitrophenyl phosphate; format: biochemical; details: p-nitrophenyl phosphate substrate, concentrations as in Figure 5A
T1 construct: made in house
Description: To directly determine LKB1 activity, kinase assays were performed in the presence or absence of the indicated concentration of BAY-3827 or SBI-0206965 as for AMPK, except that LKBtide was used as a peptide substrate. PPM1A activity was determined using p-nitrophenyl phosphate (pNPP) as a substrate. PPM1A (5 µg) was incubated with 50 mM pNPP and 50 mM MgCl2 in Hepes buffer in the presence of a vehicle or the indicated concentration of BAY-3827 or SBI-0206965 for 10 min at 30 °C. The reaction was quenched by the addition of 1 mL of 0.5 M EDTA and the amount of product, p-nitrophenol, determined by measuring absorbance at 405 nm.

[1] = system: GBF1 (Thr1337) phosphorylation in U2OS cells; experiment: GBF1 phosphorylation in U2OS cells (Western blot); format: cell-based, human; details: 30 min inhibitor then 30 min MK-8722 (300 nM), read-out: IC50, inhibition of MK-8722-stimulated GBF1 phosphorylation
Description: as §1, §2
(§4) SDS-PAGE was performed using precast NuPAGE Tris-acetate 3–8% gradient polyacrylamide gels in Tris-acetate running buffer when analyzing ACC, GBF1, or Raptor, or NuPAGE Bis-Tris 4–12% gradient polyacrylamide gels in the MOPS buffer system (ThermoFisher Scientific, Waltham, MA, USA) for other proteins (unless stated otherwise). Proteins were transferred to nitrocellulose membranes using the iBlot 2 system (ThermoFisher Scientific). Membranes were enhanced if necessary using SuperSignal Western Blot Enhancer (ThermoFisher Scientific), then blocked for 1 h in Li-Cor Odyssey blocking buffer. The membranes were probed with the appropriate primary antibody ([…]) overnight at 4 °C. Detection was performed using secondary antibody or streptavidin probe (for total ACC) coupled to IR 680 or IR 800 dye, and the membranes were scanned using the LICOR Odyssey IR imager. Protein concentrations were determined by Coomassie Blue binding with bovine serum albumin as a standard. The cellular levels of AMP and ATP were determined via direct perchloric acid extraction from cells, with LC:MS used to estimate the levels of each nucleotide.

human α1β1γ1 complex = human α1β1γ1 complex (Homo sapiens, UniProt Q13131); experiment: Cell-free kinase assay of bacterially expressed human α1β1γ1 complex phosphorylated on Thr172 by CaMKK2; format: biochemical; details: ATP 200 µM; read-out: IC50, inhibition of human α1β1γ1 complex
Excerpt: as §3, with “The final resuspended pellets from each biological replicate were divided into two aliquots (40 µg lysate protein) to provide technical replicates and assayed as above.” left out

[2] = system: phosphorylation of Thr172 on AMPK-α in U2OS cells; experiment: AMPK Thr172 phosphorylation in U2OS cells (Western blot); format: cell-based, human
Description: as §1, §2, §4

Chain of human α1β1γ1 complex (Q13131 whole entry): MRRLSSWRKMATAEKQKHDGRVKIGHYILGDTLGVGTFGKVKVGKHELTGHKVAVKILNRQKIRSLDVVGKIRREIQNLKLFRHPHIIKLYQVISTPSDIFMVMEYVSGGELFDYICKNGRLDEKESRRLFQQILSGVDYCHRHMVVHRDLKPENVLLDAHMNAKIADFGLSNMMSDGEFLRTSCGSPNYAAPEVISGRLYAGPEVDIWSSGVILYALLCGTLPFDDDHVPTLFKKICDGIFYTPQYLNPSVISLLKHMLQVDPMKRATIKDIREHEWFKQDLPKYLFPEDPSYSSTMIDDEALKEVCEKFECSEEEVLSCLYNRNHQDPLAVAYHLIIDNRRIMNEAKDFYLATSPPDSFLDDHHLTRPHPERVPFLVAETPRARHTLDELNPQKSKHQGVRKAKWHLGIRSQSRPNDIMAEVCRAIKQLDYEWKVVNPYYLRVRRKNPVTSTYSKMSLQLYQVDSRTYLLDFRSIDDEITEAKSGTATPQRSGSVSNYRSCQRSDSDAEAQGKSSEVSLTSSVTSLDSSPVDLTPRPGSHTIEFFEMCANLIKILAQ
Chain of human α1β1γ1 complex (P54619 whole entry, further chain): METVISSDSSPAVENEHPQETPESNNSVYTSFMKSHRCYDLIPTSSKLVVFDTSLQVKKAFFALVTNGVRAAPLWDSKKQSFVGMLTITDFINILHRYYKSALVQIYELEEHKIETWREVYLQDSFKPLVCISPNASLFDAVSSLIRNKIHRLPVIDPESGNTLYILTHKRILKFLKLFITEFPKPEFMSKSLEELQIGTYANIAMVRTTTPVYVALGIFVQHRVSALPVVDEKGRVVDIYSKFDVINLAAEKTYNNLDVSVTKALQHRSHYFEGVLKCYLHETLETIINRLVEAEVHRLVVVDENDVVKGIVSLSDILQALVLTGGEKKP
Chain of human α1β1γ1 complex (Q9Y478 2-270, further chain): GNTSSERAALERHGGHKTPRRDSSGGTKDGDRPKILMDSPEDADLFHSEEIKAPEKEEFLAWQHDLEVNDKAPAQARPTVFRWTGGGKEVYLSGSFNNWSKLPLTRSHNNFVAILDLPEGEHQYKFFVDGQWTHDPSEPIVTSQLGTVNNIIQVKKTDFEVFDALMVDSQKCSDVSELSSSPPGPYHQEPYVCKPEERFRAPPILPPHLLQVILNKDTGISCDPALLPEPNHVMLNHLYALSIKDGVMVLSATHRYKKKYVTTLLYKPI

| EC50 (AMPK in U2OS cells; Homo sapiens, U2OS cells treated with inhibitor and MK-8722, read-out: EC50, activation of AMPK activity in immunoprecipitates) [µM] | IC50 ([1]; Homo sapiens, 0.5 h) [µM] | EC50 ([2]; Homo sapiens, read-out: EC50, half-maximal increase of Thr172 phosphorylation) [µM] | Compound | Activation of AMPK activity in immunoprecipitates (AMPK in U2OS cells; U2OS cells treated with inhibitor and MK-8722) [fold] | effect on activity of PPM1A (PPM1A) | IC50 (human α1β1γ1 complex) | maximum increase of Thr172 phosphorylation ([2]; pThr172:total AMPK relative to control) [fold] | effect on AMPK activity in immunoprecipitates (AMPK in U2OS cells; U2OS cells, MK-8722 and increasing concentrations of inhibitor) | IC50 [1] [µM] | increase of Thr172 phosphorylation, maximal effect at low concentrations ([2]; 3–30 µM) | increase of Thr172 phosphorylation at high concentrations ([2]; 100–300 µM, not saturated) [fold] |
| --- | --- | --- | --- | --- | --- | --- | --- | --- | --- | --- | --- |
| 0.084 | 0.055 | 0.164 | CCc1ccccc1C(=O)Nc1n[nH]c2c(C)c(F)c(C3C(C#N)=C(C)N(C)C(C)=C3C#N)cc12 [BAY-3827] | 2.5 | Lack of effect | 0.025 µM | 9.7 |  |  |  |  |
|  |  |  | CNC(=O)c1ccccc1Oc1nc(Nc2cc(OC)c(OC)c(OC)c2)ncc1Br [SBI-0206965] |  | Lack of effect | 0.247 µM and 0.25 µM |  | increased with a similar biphasic pattern | 12 | about 2 fold | 4 |
